Assays:
[1] = literature (Gudmundson et al. 1966); cited from earlier work
female Wistar rats = experiment: randomized bioassay, effect on plasma calcium after tail vein injection (Example 2); format: in vivo
Method: After preliminary experiments had shown that the time courses of the effects of PDN 21 and human calcitonin (hCT) on plasma calcium were similar, peptide in acetate buffer was injected into the tail vein of female Wistar rats (mean wt 45 g, range 43―48, Oxfordshire Laboratory Animal Colonies (1976) Ltd.) and blood was taken from the aorta after 30 min in a randomized bioassay (Macintyre, I. Galante, L. S. & Hillyard, C. J. in Handbuch der inneren MedizinVllIA(eds) Kuhlen- cordt, F. & Bartelheimer, H. 623-634 (Springer-Verlag, Heidelberg, 1980)). Plasma calcium was measured colormetrically by the method of (Gindler, E. M. & King, J. D. Amer. J.Clin. Path. 58, 376―382 (1972)), and the values confirmed by atomic absorption spectrophotometry. The results are shown graphically in Figure 3. Each point is the mean from three rats 0 PDN-21; A hCT (WHO 1st International Reference Preparation of Calcitonin Hormone for Bioassay, 70/234 supplied by the National Institute for Biological Standards and Control); DhCT+PDN-21 (800 ng PDN 21 was injected with each dose of calcitonin). […] Smoothed curves were fitted to the data by eye. […] Potencies were calculated in terms of hCT over the dose ranges where the log dose response is linear, yielding values of 0.017 milliunits hCT equivalent/ng PDN-21 and 5.11 milliunits hCT equivalent/milliunit hCT in the hCT+PDN-21 group. […]

Substance	effect on plasma phosphate [1]	enhancement of the potency of hCT (female Wistar rats; in the presence of a maximal dose of PDN-21, plasma calcium in the rat)	dose giving 50% response (ED50), plasma calcium (female Wistar rats; tail vein injection, blood after 30 min, probit transformation) [MRC milliunits]
calcitonin	lowers	–	–
human calcitonin [hCT]	–	five-fold	0.71

From EP0070186B1, “Biologically active peptides” (CELLTECH LIMITED, priority 1981, dated 1985)
